Values after ≈ are worked out from the molar mass of the structure shown.
Assays:
HEL [1] = assay: Activity against CMV (AD-169) induced cytopathicity in HEL cells; type: functional; conditions: Homo sapiens
MDCK [2] = assay: cells; conditions: Canis lupus familiaris
HEL [3] = assay: Activity against CMV (Davis) induced cytopathicity in HEL cells; type: functional; conditions: Homo sapiens
CCRF-CEM [4] = assay: Activity against HIV-2 induced cytopathicity in CEM cells; type: functional; conditions: Homo sapiens
HeLa [5] = assay: cells; conditions: Homo sapiens
E6SM [6] = assay: Activity against VSV virus induced cytopathicity in E6SM cells; type: functional; conditions: Homo sapiens
E6SM [7] = assay: Activity against HSV-2(G) virus induced cytopathicity in E6SM cells; type: functional; conditions: Homo sapiens
CCRF-CEM [8] = assay: Activity against HIV-1 induced cytopathicity in CEM cells; type: functional; conditions: Homo sapiens
L1210 = assay: Inhibitory concentration on murine leukemia L1210/0 cells; type: functional, cell-based; conditions: Mus musculus
MDCK [9] = assay: cells; conditions: Canis lupus familiaris; remark: listed apart in the source
[10] = tested on: Respiratory syncytial virus; assay: Activity against RSV (strain Long) virus induced cytopathicity in HeLa cells; type: functional; conditions: human respiratory syncytial virus
Homo sapiens [11] = species on record: Homo sapiens; assay: Inhibitory concentration on human T-lymphocyte Molt4 (clone 8) cells; type: functional, cell-based; conditions: MOLT-4
E6SM [12] = assay: Activity against VV virus induced cytopathicity in E6SM cells; type: functional; conditions: Homo sapiens
Vero [13] = assay: Activity against reovirus-1 induced cytopathicity in Vero cells; type: functional; conditions: Chlorocebus sabaeus
E6SM [14] = assay: Activity against HSV-1(KOS) virus induced cytopathicity in E6SM cells; type: functional; conditions: Homo sapiens
HeLa [15] = assay: Activity against coxsackie B4 virus induced cytopathicity in HeLa cells; type: functional; conditions: Homo sapiens
HEL [16] = assay: Activity against VZV (YS) induced cytopathicity in HEL cells; type: functional; conditions: Homo sapiens
HeLa [17] = assay: Activity against parainfluenza-3 virus induced cytopathicity in HeLa cells; type: functional; conditions: Homo sapiens
Homo sapiens [18] = species on record: Homo sapiens; assay: Inhibitory concentration on human T-lymphocyte CEM/0 cells; type: functional, cell-based; conditions: CCRF-CEM
Vero [19] = assay: cells; conditions: Chlorocebus sabaeus
Vero [20] = assay: Activity against semliki forest virus induced cytopathicity in Vero cells; type: functional; conditions: Chlorocebus sabaeus
Vero [21] = assay: cells; conditions: Chlorocebus sabaeus; remark: listed apart in the source
HEL [22] = assay: Activity against VZV (OKA) induced cytopathicity in HEL cells; type: functional; conditions: Homo sapiens
Vero [23] = assay: Activity against sindbis virus induced cytopathicity in Vero cells; type: functional; conditions: Chlorocebus sabaeus
HeLa [24] = assay: Activity against VSV virus induced cytopathicity in HeLa cells; type: functional; conditions: Homo sapiens
Adenosylhomocysteinase = Adenosylhomocysteinase (Mus musculus, UniProt P50247); assay: Binding affinity against L929 cells AdoHcy hydrolase activity; type: cell-based
Homo sapiens [25] = species on record: Homo sapiens; assay: Inhibitory concentration on human T-lymphocyte Molt(clone 8) cells; type: functional, cell-based
MDCK [26] = assay: Activity against influenza B virus induced cytopathicity in MDCK cells; type: functional; conditions: Canis lupus familiaris
MDCK [27] = assay: Activity against influenza A virus induced cytopathicity in MDCK cells; type: functional; conditions: Canis lupus familiaris

Sequence of Adenosylhomocysteinase (P50247 whole entry): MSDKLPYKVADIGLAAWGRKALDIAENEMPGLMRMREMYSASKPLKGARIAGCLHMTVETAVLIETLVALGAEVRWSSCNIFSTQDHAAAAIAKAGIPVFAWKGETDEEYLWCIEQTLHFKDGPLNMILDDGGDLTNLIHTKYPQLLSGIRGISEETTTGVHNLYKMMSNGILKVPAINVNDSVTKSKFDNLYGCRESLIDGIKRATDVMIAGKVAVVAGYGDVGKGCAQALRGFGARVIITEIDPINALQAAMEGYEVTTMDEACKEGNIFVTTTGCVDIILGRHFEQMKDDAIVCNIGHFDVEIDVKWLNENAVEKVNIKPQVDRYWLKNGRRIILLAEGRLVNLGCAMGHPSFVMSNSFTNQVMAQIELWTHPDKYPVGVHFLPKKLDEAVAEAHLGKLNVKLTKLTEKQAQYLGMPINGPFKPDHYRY

| Compound | MIC50 (HEL [1]) [µg/mL] | MIC50 (HEL [3]) [µg/mL] | MIC50 (HeLa [5]) [µg/mL] | MIC50 (E6SM [6]) [µg/mL] | MIC50 (E6SM [7]) [µg/mL] | IC50 (L1210) [nM] | MIC50 [10] [µg/mL] | MIC50 (E6SM [12]) [µg/mL] | MIC50 (Vero [13]) [µg/mL] | MIC50 (E6SM [14]) [µg/mL] | MIC50 (HeLa [15]) [µg/mL] | MIC50 (HEL [16]) [µg/mL] | MIC50 (HeLa [17]) [µg/mL] | IC50 (Homo sapiens [18]) [nM] | MIC50 (Vero [19]) [µg/mL] | MIC50 (Vero [20]) [µg/mL] | MIC50 (Vero [21]) [µg/mL] | MIC50 (HEL [22]) [µg/mL] | MIC50 (Vero [23]) [µg/mL] | MIC50 (HeLa [24]) [µg/mL] | further results |
| --- | --- | --- | --- | --- | --- | --- | --- | --- | --- | --- | --- | --- | --- | --- | --- | --- | --- | --- | --- | --- | --- |
| Nc1ncnc2c1ncn2[C@H]1C[C@@H](O)[C@H](O)[C@@H]1O | 5 (≈ 19.9 µM) | 3 (≈ 11.9 µM) | > 400 | 2 (≈ 7.96 µM) | > 400 | 5700 | > 200 | 0.7 (≈ 2.79 µM) | 7 (≈ 27.9 µM) | > 400 | > 400 | > 50 | 0.2 (≈ 0.796 µM) | 3990 | 30 (≈ 119 µM) | > 400 | 50 (≈ 199 µM) | > 50 | > 400 | 2 (≈ 7.96 µM) | MIC50 (MDCK [2]): > 200 µg/mL; MIC50 (CCRF-CEM [4]): > 4 µg/mL; MIC50 (CCRF-CEM [8]): > 4 µg/mL; MIC50 (MDCK [9]): > 200 µg/mL; IC50 (Homo sapiens [11]): 4650 nM |
| Nc1ncnc2c1ncn2C1CC(O)C(O)C1O (racemic) | – | – | – | – | – | 630 | – | – | – | – | – | – | – | 680 | – | – | – | – | – | – | Ki (Adenosylhomocysteinase): 11.1 nM; IC50 (Homo sapiens [25]): 580 nM |
| Nc1ncnc2c1ncn2[C@@H]1C=C(CO)[C@@H](O)[C@H]1O [NEOPLANOCIN A] | 0.2 (≈ 0.76 µM) | 0.2 (≈ 0.76 µM) | > 10 | 2 (≈ 7.6 µM) | > 100 | – | > 1.2 | 0.2 (≈ 0.76 µM) | 0.7 (≈ 2.66 µM) | 70 (≈ 266 µM) | > 10 | 3.5 (≈ 13.3 µM) | 0.2 (≈ 0.76 µM) | – | 0.4 (≈ 1.52 µM) | > 10 | 0.4 (≈ 1.52 µM) | 6 (≈ 22.8 µM) | > 10 | 2 (≈ 7.6 µM) | MIC50 (MDCK [2]): 1.2 µg/mL (≈ 4.56 µM); MIC50 (MDCK [9]): > 2.8 µg/mL; Ki (Adenosylhomocysteinase): 3 nM |
| Nc1ncnc2c1ncn2[C@@H]1C[C@H](O)[C@@H](O)[C@H]1O [NORARISTEROMYCIN] | 0.01 (≈ 0.0398 µM) | 0.03 (≈ 0.119 µM) | > 400 | 0.1 (≈ 0.398 µM) | > 400 | 500 | > 200 | 0.04 (≈ 0.159 µM) | 0.7 (≈ 2.79 µM) | > 400 | > 400 | > 50 | 0.07 (≈ 0.279 µM) | 420 | 6 (≈ 23.9 µM) | > 400 | 8 (≈ 31.8 µM) | > 50 | > 400 | 0.2 (≈ 0.796 µM) | MIC50 (CCRF-CEM [4]): > 0.16 µg/mL; MIC50 (CCRF-CEM [8]): > 0.16 µg/mL; IC50 (Homo sapiens [11]): 390 nM; MIC50 (MDCK [26]): > 100 µg/mL; MIC50 (MDCK [27]): > 100 µg/mL |
